In patent US11331379B2, “Compositions and methods for regulating pancreatic beta cell function using adipsin” (Dana-Farber Cancer Institute, Inc., priority 2014, dated 2022):

Legend:
[1] = molecular target: T1, C3aR1 (Mus musculus, UniProt O09047); assay: C3aR1 antagonist treatment of adipsin-adenovirus-transduced db/db mice, i.p. GTT and plasma insulin; type: in vivo
T1 construct: endogenous in cells; host or cells: db/db mice (Jackson Laboratories, Stock 000697), whole animal
T1 sequence (O09047 1-477): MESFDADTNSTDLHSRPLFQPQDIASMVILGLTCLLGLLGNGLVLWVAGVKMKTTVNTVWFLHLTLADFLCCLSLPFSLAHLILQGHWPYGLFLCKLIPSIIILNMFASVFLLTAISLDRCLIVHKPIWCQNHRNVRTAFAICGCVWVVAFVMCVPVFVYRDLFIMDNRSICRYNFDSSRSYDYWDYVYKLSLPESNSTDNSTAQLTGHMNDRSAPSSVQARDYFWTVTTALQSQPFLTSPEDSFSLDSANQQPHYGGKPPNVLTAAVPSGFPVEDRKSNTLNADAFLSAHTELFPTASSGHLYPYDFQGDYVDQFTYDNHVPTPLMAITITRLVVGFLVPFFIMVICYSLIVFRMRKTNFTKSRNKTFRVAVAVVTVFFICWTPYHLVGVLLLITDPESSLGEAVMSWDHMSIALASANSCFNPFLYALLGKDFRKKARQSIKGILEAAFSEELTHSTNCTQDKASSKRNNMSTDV
Description: Wild-type (WT) and Adipsin^−/− mice (from G. Stahl, Brigham and Women's Hospital, Boston, Mass., USA) were backcrossed 7-10 generations to C57BL/6 (B6) background. Control littermate mice from same backcrossed generations were used for experiments. B6 mice were fed a regular chow diet or a 60% kCal high fat diet (Research Diets, New Brunswick, N.J., USA) for the indicated times. db/db mice (Stock 000697) were purchased from Jackson laboratories (Bar Harbor, Me., USA). For adenoviral expression studies, mice were injected intravenously with lacZ or adipsin-expressing pAd adenoviral vectors (Life Technologies, Grand Island, N.Y., USA) and assayed 5 days later. For C3aR1 antagonist experiments, SB 290157 (N^2-[(2,2-Diphenylethoxy)acetyl]-L-arginine, TFA, Millipore, Billerica, Mass., USA) dosed at 30 mg/kg or vehicle (10% ethanol) was administered by intraperitoneally (i.p.) injections bis in die (b.i.d.) from days 3-5 after adenovirus. Mice were fasted overnight for glucose tolerance tests and given an i.p. injection of D-glucose ([…] for regular diet mice). For insulin tolerance tests, mice were fasted for 5 hours and given an i.p. injection of insulin (0.75 units/kg body weight). Blood samples were taken from the tail vein and measured with a glucometer. The mice were housed in a facility accredited by the American Association for Laboratory Animal Care. The Institutional Animal Care and Use Committee of the Beth Israel Deaconess Medical Center approved studies using animals.

[2] = tested on: murine islets; assay: static glucose-stimulated insulin secretion (GSIS) assay in isolated islets; type: cell-based, mouse; conditions: for enhancement of insulin secretion: islets from WT mice on chow diet
Experimental: (§1) Recombinant C3a and C5a proteins (R&D Systems, Minneapolis, Minn., USA) were used at a concentration of 100 nM. Anti-adipsin antibody for Western blot analysis was from Santa Cruz Biotechnology, Santa Cruz, Calif., USA). Antibodies to C3aR1 (Santa Cruz Biotechnology), C5aR1 (Biolegend, San Diego, Calif., USA) and C5L2 (Hycult Biotechnology, Plymouth Meeting, Pa., USA) were used for flow cytometry. RNA isolation and reverse transcription were performed with TRIzol® (Life Technologies), RNeasy (Qiagen, Valencia, Calif., USA) and cDNA synthesis (Agilent Technologies, Santa Clara, Calif., USA) kits. qPCR reactions were done with SYBR green on an ABI PRISM® 7900HT real time PCR system (Life Technologies).
Islets were isolated from pancreata of the indicated genotype with collagenase digestion as previously described (Danial et al. (2008) Nat. Med. 14:144-153). For static incubation (batch release) assays, islets were handpicked and placed into basal Krebs buffer containing 3 mM glucose followed by transfer into Krebs solution containing the indicated concentrations of glucose or secretagogues. After 45 min incubation at 37° C., the islets were pelleted and the supernatant was collected for insulin measurement. The pellet was solubilized to assess intracellular insulin content. Insulin was measured by ELISA using mouse insulin as a standard (Crystal Chem Inc., Downers Grove, Ill., USA).

[3] = tested on: islets; assay: oxygen consumption rate (OCR) of islets, XF24 analyzer; type: cell-based, mouse
Experimental: as §1
Real-time measurements of mitochondrial oxygen consumption rate (OCR) were performed using the XF24 extracellular flux analyzer instrument and the AKOS algorithm built in the XF24 v1.7.0.74 software (Seahorse Bioscience, Inc., Billerica, Mass., USA). Islets were rinsed with sodium bicarbonate-free DMEM supplemented with 0.5% BSA and 3 mM glucose and 60 islets were distributed per well and recounted for OCR measurements. After baseline measurements, substrates or inhibitors of interests were added in single 50 μl injections delivered through individual injection ports. […] The respiratory rate of each islet sample was measured at 37° C. and analyzed using the Seahorse XF24 v1.5.0.69 software.

[4] = molecular target: T1, C3aR1; assay: GSIS assay in islets from wild-type and C3aR1-deficient mice with or without C3a; type: cell-based; conditions: WT versus C3aR1-deficient islets
Description: Panels A and B show the relative expression of Adipsin (Panel A) and C3 (Panel B) in liver, quadriceps muscle (quad), islets, epididymal (epi) and inguinal (ing) fat. Samples were quantitated by qPCR. Panels C-E show the results of flow cytometry performed on islet cells with antibodies to the complement/anaphylatoxin receptors C3aR1 (Panel C), C5aR1 (Panel D), and C5L2 (Panel E). Panels F-G show the results of isolated islets from WT mice on a chow diet (Panel F) or HFD (Panel G) subjected to a GSIS assay in the presence or absence of recombinant C3a and C5a with the indicated concentrations of glucose. Panels H and I show the results of db/db mice transduced with lacZ or adipsin adenovirus ([…]) treated with vehicle or C3aR antagonist (SB 290157) at a dose of 30 mg/kg b.i.d. for 3 days and subjected to an i.p. GTT with measurements of blood glucose concentrations (Panel H) and plasma insulin levels (Panel I) at the indicated times. Statistics for GTT assays between groups: lacZ/vehicle vs. adipsin/vehicle, p=0.05; adipsin/vehicle vs. adipsin/SB 290157, p<0.01; lacZ/SB 290157 vs. adipsin/vehicle, p<0.01. […]
Islets were isolated from pancreata of the indicated genotype with collagenase digestion as previously described (Danial et al. (2008) Nat. Med. 14:144-153). […] Insulin was measured by ELISA using mouse insulin as a standard (Crystal Chem Inc., Downers Grove, Ill., USA).

[5] = tested on: islets; assay: cytoplasmic free Ca2+ measurement in perifused islets (Fura-2); type: cell-based, mouse
Experimental: as §1
For measurements of cytoplasmic free Ca^2+ concentration, islets were loaded with 2 μM Fura-2/AM (Molecular Probes, Eugene, Oreg., USA) for 60 min. in the presence or absence of C3a in a buffer containing (in mM) 125 NaCl, 5.9 KCl, 1.28 CaCl2, 1.2 MgCl2, 25 HEPES, and 3 glucose and 0.1% BSA (pH 7.4). After loading, a single islet was transferred to an open perifusion chamber maintained at 37° C. and [Ca^2+], was measured as the 340/380 nm fluorescence ratio using a Spex FluoroLog® spectrophotometer coupled to a Zeiss Axiovert 35 M microscope with a Zeiss Fluar 40×/1.30 oil objective (Carl Zeiss, Gottingen, Germany). Concentrations of 20 mM glucose and 50 mM KCl (in the presence of 3 mM glucose) were used for islet stimulation.

N=C(N)NCCC[C@H](NC(=O)COCC(c1ccccc1)c1ccccc1)C(=O)O.O=C(O)C(F)(F)F [SB 290157, N^2-[(2,2-Diphenylethoxy)acetyl]-L-arginine, TFA]
improvements in insulin secretion conferred by the adipsin adenovirus ([1]; db/db mice with adipsin adenovirus, antagonist 30 mg/kg i.p. b.i.d. for 3 days): nearly completely reversed
improvements in glucose tolerance conferred by the adipsin adenovirus ([1]; db/db mice with adipsin adenovirus, antagonist 30 mg/kg i.p. b.i.d. for 3 days, i.p. GTT): nearly completely reversed
insulin induction from time 0 to 20 minutes ([1]; db/db mice, adipsin adenovirus plus SB 290157 30 mg/kg b.i.d. 3 days, i.p. glucose challenge): 1.4 fold

C3a: Recombinant C3a protein (R&D Systems); complement peptide, direct product of C3 convertase generated by adipsin
insulin secretion in conjunction with tolbutamide ([2]; 0.25 mM tolbutamide, C3a 100 nM): further stimulated insulin secretion
insulin secretion in conjunction with KCl ([2]; 30 mM KCl, C3a 100 nM): further stimulated insulin secretion
enhancement of insulin secretion ([2]; high glucose, 100 nM, acute): 30-40%
insulin secretion in diabetic islets ([2]; islets from diabetic mice fed a HFD, 100 nM): stimulated insulin secretion
enhancement of insulin secretion ([2]; low glucose, 100 nM): not low
oxygen consumption with glucose challenge ([3]; 20 mM glucose, acute C3a, versus control islets): increased oxygen consumption
ATP-coupled respiration ([3]; islets, C3a versus control): increases ATP-coupled respiration
C3a-mediated potentiation of glucose-stimulated insulin secretion [4]: C3aR1 is required
basal levels of [Ca2+]i ([5]; 3 mM glucose, C3a-treated versus control islets): similar
[Ca2+]i in response to glucose and KCl ([5]; 20 mM glucose and KCl stimulation): potently augmented
response times of [Ca2+]i ([5]; C3a-treated versus non-treated islets): similar
increase of [Ca2+]i area under the curve ([5]; KCl stimulation): ~100%
increase of peak [Ca2+]i ([5]; KCl stimulation): ~100%
increase of [Ca2+]i area under the curve ([5]; glucose stimulation (20 mM)): ~50%
increase of peak [Ca2+]i ([5]; glucose stimulation (20 mM)): ~50%
increases in [Ca2+]i ([5]; isolated islets perifused with glucose or KCl in the presence of C3a): 50-100%

B1: C5a: Recombinant C5a protein (R&D Systems), complement anaphylatoxin (protein, UniProt P01031 678-751, looked up)
C5a anaphylatoxin: TLQKKIEEIAAKYKHSVVKKCCYDGACVNNDETCEQRAARISLGPRCIKAFTECCVVASQLRANISHKDMQLGR
modifications: C5a anaphylatoxin
enhancement of insulin secretion ([2]; C5a 100 nM, GSIS): did not show this effect
